The values that follow come from patent publication US12077512B2, “Compositions and methods for reducing tactile dysfunction, anxiety, and social impairment” (President and Fellows of Harvard College, priority 2019, dated 2024).

Data set [1] relates to Advillin^Cre and Mecp^2f/y mice and control littermates. Description: Tactile prepulse inhibition (PPI): startle response to a 125 dB noise preceded by a light air puff. In kind it is in vivo. The settings on record: i.p., 2 mg/kg vs saline, both Mecp2 mutants and controls. The method, then:
FIG. 1 is a graph showing percent inhibition of the startle response to a 125 dB noise, when the startle noise is preceded by a light air puff in mice following i.p. administration of either saline or 2 mg/kg midazolam treatment. Two-way ANOVA with post-hoc Sidak's test, *, p<0.05.

Data set [2] shares this test system. The experiment in a line: Magnitude of startle response to a 125 dB noise. It is filed as in vivo. The settings on record: i.p., 2 mg/kg vs saline, all mice. The method, then: FIG. 3 is a graph showing magnitude of startle response to a 125 dB noise in mice following i.p. administration of either saline or 2 mg/kg midazolam treatment. Responses are expressed as percent of startle response to a 125 dB noise. Two-way ANOVA with post-hoc Sidak's test, *, p<0.05.

Turning to `Cc1ncc2n1-c1ccc(Cl)cc1C(c1ccccc1F)=NC2` [midazolam], the “tactile sensitivity (percent inhibition of the startle response to a 125 dB noise when preceded by a light air puff, tactile PPI)” value in data set [1] is reported as “significantly attenuated tactile sensitivity”. The sedation result in data set [2] (evidenced by startle amplitude) is given as “caused significant sedation”. Besides, the “reduction in startle amplitude” value in data set [2] (startle to 125 dB noise) is listed as ~50%.
